Results: US10434083B2, “Transmammary delivery of cyclooxygenase-2 inhibitors for analgesia in neonates” (Iowa State University Research Foundation, Inc., priority 2018, dated 2019)
Entries after “also recorded” stand apart in the source; their conditions may differ.

Tests used:
Assay type in all cases: in vivo, swine
[1] = test system: plasma cortisol; test: Plasma cortisol concentrations in piglets after processing (castration, tail docking, teeth clipping)
Procedure: Castration, teeth clipping, and tail docking were completed for each male piglet between the 6-h and 8-h blood collection time points. […] Castration was performed using a number 10 scalpel blade to making two vertical incisions approximately 2-3 cm long in the skin covering the testicles. The testicles were then marsupialized, and manual pressure was applied to the spermatic cord until it separated from the piglet's body. Side-cutter pliers were used to remove the tail at the 6th coccygeal vertebral body, and the canine teeth were filed flush with the gingival tissue.
To accommodate blood volume restrictions, blood samples for cortisol determination were collected from three randomly selected piglets/litter (two male and one female piglet at each time point) prior to processing (6 h after firocoxib injection in the sow) and after processing at approximately […] after drug injection in the sow. These time points corresponded to approximately 0, 2, 6, 18, 42, 66 and 90 h after processing. The blood for cortisol analysis was collected in 3-mL heparinized blood collection tubes (BD Vacutainer, Franklin Lakes, N.J.) and then centrifuged for 10 min at 1,500×g. The plasma was collected, then immediately frozen and stored at −80° C. The analyses for plasma cortisol concentrations were performed within 60 d after sample collection and within 10 consecutive days once the analyses were started. Plasma cortisol concentrations were determined using a commercial radioimmunoassay kit (CortiCote I-125, MP Biomedicals, Santa Ana, Calif.). […]
Plasma cortisol concentrations and ADG were analyzed using a nonlinear mixed-effects analysis incorporating both fixed effects and random effects (PROC GLMMIX; SAS university edition v9.04.01, SAS Institute, Cary, N.C.). […]
To account for the fact that not all the piglets were blood sampled at every time point due to blood volume restrictions in piglets, individual piglet peak cortisol concentrations (CortCmax) were calculated for each piglet after processing by visual inspection of the data. […]

[2] = Piglet average daily gain (ADG) from processing to weaning; conditions: piglets; for Average Daily Gain (ADG) Mean Difference: least squares means
Procedure: On day 21 post-drug injection in the sow, the body weight of each sow and piglet was recorded before weaning to calculate average daily weight gain.
Plasma cortisol concentrations and ADG were analyzed using a nonlinear mixed-effects analysis incorporating both fixed effects and random effects (PROC GLMMIX; SAS university edition v9.04.01, SAS Institute, Cary, N.C.). The population cortisol concentrations best fit a lognormal model. Time, treatment and their interaction were designated as fixed effects in the model with piglet nested in sow designated as a random effect. The effect of gender across treatments was examined using ANOVA to confirm that data from female piglets could be pooled to serve as a procedural control. Sow parity was also included as a covariate in the model. Where there was evidence of a treatment-by-time interaction (P<0.1), simple effect comparisons of LS means were conducted using the Tukey-Kramer adjustment for multiple comparisons. ADG outcomes best fit a Gaussian distribution. The effect of gender across treatments was also examined by ANOVA to clarify the effect of drug exposure from the effect of processing. For both outcomes, statistical significance was set a priori at P<0.05.
Eight piglets died between processing and weaning. Average daily gain in body weight (ADG) of the surviving piglets over the 21 d from processing to weaning was calculated by subtracting the body weight at processing from the body weight at weaning and dividing the result by the days from processing to weaning (FIG. 12 and FIG. 13). […] Specifically, ADG increased with the increasing doses of firocoxib administered to the lactating sows via injection.

[3] = Plasma firocoxib in nursing piglets after transmammary delivery (Example 1); conditions: piglets nursing sow given 1.5 mg/kg IM; from 2 hours post-exposure to end of study (48 h)
Procedure: Blood (sodium heparin tubes) was collected from the sow via jugular venipuncture at the following time points after drug administration via injection to the sow: 0, 1, 2, 3, 4, 6, 8, 10, 12, 24, 36 and 48 hours. The piglets had blood collected via jugular venipuncture at the following timepoints following sow drug administration via injection:
Piglets 1-3 was bled at times 0, 3, 8 and 24 hours
Piglets 4-6 was bled at times 1, 4, 10 and 36 hours
Piglets 7-9 was bled at times 2, 6, 12 and 48 hours.
Approximately 10 mL of blood was collected from the sow at each time point, and approximately 5 mL was collected from each piglet at each time point. Following blood collection at the 48 hour time point, the sow and piglets was euthanized and disposed of per study site procedures. […]
Plasma concentrations of firocoxib were measured with high-pressure liquid chromatography-tandem mass spectrometry (Shimadzu Prominence, Shimadzu Scientific Instruments, Columbia, Md., USA). […]
The standard curve of firocoxib concentration determined using porcine plasma was linear from 0.020 to 5.0 μg/mL and was accepted when the correlation coefficient exceeded 0.99 and measured values were within 15% of the actual values. The lower limit of quantification, defined as the lowest concentration on a linear standard curve with predicted concentrations within 15% of the actual concentration, was 0.020 μg/mL.

Structure (SMILES): CC1(C)OC(=O)C(OCC2CC2)=C1c1ccc(S(C)(=O)=O)cc1 [firocoxib]
- mean plasma cortisol concentration at 2±1 h after processing ([1]; male piglets, sow dose 2.0 mg/kg vs 0.5 mg/kg (P=0.0397) and 1.0 mg/kg (P=0.0416)): lower mean plasma cortisol concentration
- peak plasma cortisol of individual piglets (CortCmax) ([1]; male piglets, 0.5 mg/kg (P=0.014) and 1.5 mg/kg (P=0.05) groups higher than 2.0 mg/kg): significant treatment effect
- plasma cortisol concentrations after processing, dose dependence ([1]; piglets nursing sows given 0.5-2.0 mg/kg IM): reduces plasma cortisol concentrations after processing in a dose-dependent manner; also recorded: dose-dependent reduction of plasma cortisol concentrations
- average daily gain, dose dependence ([2]; 21 d after processing, sow doses 0.5-2.0 mg/kg IM): dose-dependent increase in average daily gain
- Average Daily Gain (ADG) Mean Difference ([2]; sow dose 0.5 mg/kg vs 1.0 mg/kg): 2.56 g
- Average Daily Gain (ADG) Mean Difference ([2]; sow dose 0.5 mg/kg vs 1.5 mg/kg): -17.98 g
- Average Daily Gain (ADG) Mean Difference ([2]; sow dose 0.5 mg/kg vs 2.0 mg/kg): -39.01 g
- Average Daily Gain (ADG) Mean Difference ([2]; sow dose 1.0 mg/kg vs 1.5 mg/kg): -20.54 g
- Average Daily Gain (ADG) Mean Difference ([2]; sow dose 1.0 mg/kg vs 2.0 mg/kg): -41.57 g
- Average Daily Gain (ADG) Mean Difference ([2]; sow dose 1.5 mg/kg vs 2.0 mg/kg): -21.03 g
- weight gain (ADG) over 21 d from processing to weaning ([2]; sow dose 2.0 mg/kg vs 0.5 mg/kg (P=0.0076) or 1.0 mg/kg (P=0.0047)): gained more weight
- plasma drug concentrations in piglets [3]: above 10 ng/mL
